The source made the active and inactive calls. The rule behind the calls is not given here.
How the values were obtained:
Rattus norvegicus [1] = assay: Antidiabetic activity in Sprague-Dawley rat assessed as decrease in glucose Cmax at 10 mg/kg, iv; format: functional
[2] = molecular target: T1, Fructose-1,6-bisphosphatase 1 (Homo sapiens, UniProt P09467)
T1 sequence (P09467 whole entry): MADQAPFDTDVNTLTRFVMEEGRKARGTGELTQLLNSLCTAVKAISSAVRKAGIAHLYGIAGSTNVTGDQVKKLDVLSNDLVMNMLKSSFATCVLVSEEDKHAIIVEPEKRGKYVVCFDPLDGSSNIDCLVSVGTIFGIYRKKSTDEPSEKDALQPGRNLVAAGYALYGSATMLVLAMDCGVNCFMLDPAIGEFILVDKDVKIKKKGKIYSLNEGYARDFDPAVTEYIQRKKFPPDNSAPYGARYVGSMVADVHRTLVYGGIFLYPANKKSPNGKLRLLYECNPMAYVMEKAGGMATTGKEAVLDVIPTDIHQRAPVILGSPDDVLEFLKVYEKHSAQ
Description: Inhibition of human liver FBP

[3] = Plasma protein binding in Sprague-Dawley rat; format: ADME, cell-free; settings: read-out: PPB (converted)
[4] = Half life in Sprague-Dawley rat; format: ADME, organism-based; settings: in vivo
[5] = (§1) Oral bioavailability in Sprague-Dawley rat; format: ADME, organism-based; settings: Sprague-Dawley, in vivo
[6] = Plasma protein binding in human; format: ADME, cell-free; settings: read-out: PPB (converted)
[7] = Volume of distribution in Sprague-Dawley rat; format: ADME, organism-based; settings: in vivo
[8] = Clearance in Sprague-Dawley rat; format: ADME, organism-based; settings: in vivo
[9] = Oral bioavailability in dog; format: ADME, organism-based, Canis lupus familiaris; settings: in vivo
[10] = Oral bioavailability in rat; format: ADME, organism-based; settings: in vivo
Rattus norvegicus [11] = assay: Antidiabetic activity in Sprague-Dawley rat assessed as decrease in glucose Cmax at 10 mg/kg, po; format: functional
Rattus norvegicus [12] = assay: Antidiabetic activity in Sprague-Dawley rat assessed as decrease in glucose Cmax at 30 mg/kg
Rattus norvegicus [13] = assay: Antihyperglycemic activity in Zucker fa/fa rat assessed as reduction in glucose level at 0.4 % w/w administered as food mixture; format: functional, organism-based
Rattus norvegicus [14] = assay: as §1; format: ADME, organism-based; settings: in vivo

SMILES | inhibition in vivo at 10 mg/kg (Rattus norvegicus [1]) [%] | IC50 [2] [nM] | further results
COc1ccc(-c2sc(N)nc2-c2ccc(P(=O)(O)O)o2)cc1 | 63 | 22 | –
CCOC(=O)c1sc(N)nc1-c1ccc(P(=O)(O)O)o1 | 76 | – | –
CCc1cc(F)c(N)c2nc(-c3ccc(P(=O)(O)O)o3)n(CC(C)C)c12 | – | – | fraction unbound [3]: 0.01; half-life [4]: 45 min; bioavailability [5]: 2%; fraction unbound [6]: 0.001; Vd [7]: 0.25 L/kg; clearance [8]: 4.33 mL/min/kg
Nc1nc(-c2ccc(P(=O)(O)O)o2)c(-c2ccco2)s1 | 21 | – | –
Nc1nc(-c2ccc(P(=O)(O)O)o2)c(I)s1 | -2 | 100 | –
CC(C)Cc1sc(C#N)nc1-c1ccc(P(=O)(O)O)o1 | – | 2000 | –
CC(C)Cc1sc(CO)nc1-c1ccc(P(=O)(O)O)o1 | 8 | 220 | –
Nc1nc(-c2ccc(P(=O)(O)O)o2)c(CC2CC2)s1 | – | 20 | –
COc1cccc(-c2sc(N)nc2-c2ccc(P(=O)(O)O)o2)c1 | 0 | 21 | –
COC(=O)c1ccc(-c2sc(N)nc2-c2ccc(P(=O)(O)O)o2)cc1 | 78 | 14 | –
Nc1nc(-c2ccc(P(=O)(O)O)o2)c(-c2ccccc2)s1 | 76 | 14 | –
Nc1nc(-c2cccc(P(=O)(O)O)c2)cs1 | – | 1300 | –
CCCc1sc(N)nc1-c1ccc(P(=O)(O)O)s1 | – | > 10000 | –
CC(C)Cc1sc(C(N)=O)nc1-c1ccc(P(=O)(O)O)o1 | – | 2750 | –
CC(C)Cn1c(-c2ccc(P(=O)(O)O)o2)nc2c(N)ncnc21 | – | 800 | –
CSc1ccc(-c2sc(N)nc2-c2ccc(P(=O)(O)O)o2)cc1 | 72 | 21 | –
CCOC(=O)[C@H](C)NP(=O)(N[C@@H](C)C(=O)OCC)c1ccc(-c2nc3c(N)c(F)cc(CC)c3n2CC(C)C)o1 | – | – | bioavailability [5]: 5%; bioavailability [9]: > 10%; bioavailability [10]: > 10%
Nc1nc(-c2ccc(P(=O)(O)O)o2)c(-c2ccc(F)cc2)s1 | 60 | – | –
CCOC(=O)C(C)(C)NP(=O)(NC(C)(C)C(=O)OCC)c1ccc(-c2nc(N)sc2CC(C)C)o1 | – | – | inhibition in vivo at 10 mg/kg (Rattus norvegicus [11]): 45%
CS(=O)(=O)c1ccc(-c2sc(N)nc2-c2ccc(P(=O)(O)O)o2)cc1 | 78 | 41 | –

SMILES | inhibition in vivo at 10 mg/kg (Rattus norvegicus [1]) [%] | IC50 [2] [nM] | further results
Nc1nc(-c2ccc(P(=O)(O)O)o2)c(-c2ccc3ccccc3c2)s1 | 20 | 12 | –
Cc1nc(-c2ccc(P(=O)(O)O)o2)c(CC(C)C)s1 | 55 | – | –
Nc1nc(-c2ccc(P(=O)(O)O)o2)c(Sc2ccccc2)s1 | – | 300 | –
CCOC(=O)OCOP(=O)(OCOC(=O)OCC)c1ccc(-c2nc(N)sc2CC(C)C)o1 | – | – | inhibition in vivo at 30 mg/kg (Rattus norvegicus [12]): 40%
CCCc1sc(N)nc1-c1cccc(P(=O)(O)O)c1 | 0 | 250 | –
Nc1nc(-c2ccc(P(=O)(O)O)o2)c(-c2cccs2)s1 | 24 | – | –
CSc1nc(-c2ccc(P(=O)(O)O)o2)c(CC(C)C)s1 | – | 890 | –
C=Cc1nc(-c2ccc(P(=O)(O)O)o2)c(CC(C)C)s1 | – | 1200 | –
CCc1nc(-c2ccc(P(=O)(O)O)o2)c(CC(C)C)s1 | – | 400 | –
CCCSc1sc(N)nc1-c1ccc(P(=O)(O)O)o1 | 82 | – | –
CC(C)Cc1sc(-c2cccnc2)nc1-c1ccc(P(=O)(O)O)o1 | – | 5000 | –
Nc1nc(-c2ccc(P(=O)(O)O)o2)c(C(=O)OCc2ccccc2)s1 | 42 | – | –
Nc1nc(-c2ccc(P(=O)(O)O)o2)c(C2CCC2)s1 | – | 19 | –
Nc1nc(-c2ccc(P(=O)(O)O)o2)c(Cl)s1 | 17 | – | –
CC(=O)c1ccc(-c2sc(N)nc2-c2ccc(P(=O)(O)O)o2)cc1 | 43 | 32 | –
Cc1oc(-c2nc(N)sc2-c2ccccc2)nc1P(=O)(O)O | – | 10000 | –
CC(C)Cc1sc(Br)nc1-c1ccc(P(=O)(O)O)o1 | 3 | – | –
CCOC(=O)[C@H](C)NP(=O)(N[C@@H](C)C(=O)OCC)c1ccc(-c2nc(N)sc2CC(C)C)o1 | – | – | inhibition (Rattus norvegicus [13]): Active; inhibition in vivo at 10 mg/kg (Rattus norvegicus [11]): 59%
Nc1nc(-c2ccc(F)c(P(=O)(O)O)c2)c(-c2ccccc2)s1 | 0 | – | –
CC(C)Cc1sc(N)nc1-c1ccc(P(=O)(O)O)o1 [MB-05032] | 65 | – | fraction unbound [3]: 0.1; half-life [4]: 39 min; F (Rattus norvegicus [14]): 4%; fraction unbound [6]: 0.07; Vd [7]: 0.18 L/kg; clearance [8]: 4 mL/min/kg

SMILES | inhibition in vivo at 10 mg/kg (Rattus norvegicus [1]) [%] | IC50 [2] [nM] | further results
CC(C)(C)c1ccc(-c2sc(N)nc2-c2ccc(P(=O)(O)O)o2)cc1 | 6 | – | –
CCSc1sc(N)nc1-c1ccc(P(=O)(O)O)o1 | – | 33 | –
CC(C)Cc1sc(Cl)nc1-c1ccc(P(=O)(O)O)o1 | – | 180 | –
Nc1nc(-n2ccc(P(=O)(O)O)c2)c(-c2ccccc2)s1 | – | > 10000 | –
Nc1nc(-c2ccc(P(=O)(O)O)o2)c(Cc2ccccc2)s1 | – | 150 | –
Nc1nc(-c2ccc(P(=O)(O)O)o2)c(N2CCOCC2)s1 | 75 | 16 | –
CCOC(=O)OC(C)OP(=O)(OC(C)OC(=O)OCC)c1ccc(-c2nc(N)sc2CC(C)C)o1 (stereo not drawn) | – | – | inhibition in vivo at 10 mg/kg (Rattus norvegicus [11]): 12%
CCOC(=O)[C@H](C)NP(=O)(Oc1ccccc1)c1ccc(-c2nc(N)sc2CC(C)C)o1 (stereo partly drawn) | – | – | inhibition in vivo at 30 mg/kg (Rattus norvegicus [12]): 46%
COc1ccccc1-c1sc(N)nc1-c1ccc(P(=O)(O)O)o1 | 66 | – | –
CCCc1sc(N)nc1C(=O)OCP(=O)(O)O | 63 | 50 | –
Nc1nc(-c2ccc(P(=O)(O)O)o2)c(Br)s1 | 20 | – | –
Nc1nc(-c2ccc(P(=O)(O)O)o2)c(-c2ccc(Cl)cc2)s1 | 40 | 13 | –
Nc1nc(-c2ccc(P(=O)(O)O)o2)c(-c2ccc(-c3ccccc3)cc2)s1 | 36 | – | –
Cc1sc(N)nc1-c1ccc(P(=O)(O)O)o1 | – | 120 | –
Nc1nc(C(=O)NCP(=O)(O)O)c(-c2cccs2)s1 | – | 950 | –
CCOC(=O)CNP(=O)(Oc1ccccc1)c1ccc(-c2nc(N)sc2CC(C)C)o1 (stereo not drawn) | – | – | inhibition in vivo at 10 mg/kg (Rattus norvegicus [11]): 51%
CC(C)Sc1sc(N)nc1-c1ccc(P(=O)(O)O)o1 | 48 | 24 | –
CC(C)Cc1sc(N)nc1-c1ccc(P2(=O)OCC[C@H](c3cccc(Cl)c3)O2)o1 (stereo partly drawn) | – | – | inhibition in vivo at 30 mg/kg (Rattus norvegicus [12]): 53%
CC(C)(C)Sc1sc(N)nc1-c1ccc(P(=O)(O)O)o1 | – | 24 | –

Reference: ChEMBL document CHEMBL1649069, “Discovery of a series of phosphonic acid-containing thiazoles and orally bioavailable diamide prodrugs that lower glucose in diabetic animals through inhibition of fructose-1,6-bisphosphatase” (J Med Chem, 2011)
